Experiment [1] has as its target T1, Dual specificity tyrosine-phosphorylation-regulated kinase 1A (Homo sapiens, UniProt Q13627). In words: Binding affinity to human wild type partial length DYRK1A (H129 to S509 residues) expressed in mammalian expression system at 1 uM by kinome scan assay relative to control.
Experiment [2] deals with Homeodomain-interacting protein kinase 2 (Homo sapiens) (UniProt Q9H2X6). In words: Binding affinity to human wild type partial length HIPK2 (M153 to S564 residues) expressed in mammalian expression system at 1 uM by kinome scan assay relative to control.
The target of experiment [3] is T1, Dual specificity tyrosine-phosphorylation-regulated kinase 1A. In words: Binding affinity to DYRK1A (unknown origin) assessed as dissociation constant.
Experiment [4] deals with Homeodomain-interacting protein kinase 3 (Homo sapiens) (UniProt Q9H422). The experiment in a line: Binding affinity to human wild type partial length HIPK3 (M153 to N562 residues) expressed in mammalian expression system at 1 uM by kinome scan assay relative to control.
Experiment [5] concerns the target T2, Serine/threonine-protein kinase haspin (Homo sapiens) (UniProt Q8TF76).
T2 sequence (whole entry): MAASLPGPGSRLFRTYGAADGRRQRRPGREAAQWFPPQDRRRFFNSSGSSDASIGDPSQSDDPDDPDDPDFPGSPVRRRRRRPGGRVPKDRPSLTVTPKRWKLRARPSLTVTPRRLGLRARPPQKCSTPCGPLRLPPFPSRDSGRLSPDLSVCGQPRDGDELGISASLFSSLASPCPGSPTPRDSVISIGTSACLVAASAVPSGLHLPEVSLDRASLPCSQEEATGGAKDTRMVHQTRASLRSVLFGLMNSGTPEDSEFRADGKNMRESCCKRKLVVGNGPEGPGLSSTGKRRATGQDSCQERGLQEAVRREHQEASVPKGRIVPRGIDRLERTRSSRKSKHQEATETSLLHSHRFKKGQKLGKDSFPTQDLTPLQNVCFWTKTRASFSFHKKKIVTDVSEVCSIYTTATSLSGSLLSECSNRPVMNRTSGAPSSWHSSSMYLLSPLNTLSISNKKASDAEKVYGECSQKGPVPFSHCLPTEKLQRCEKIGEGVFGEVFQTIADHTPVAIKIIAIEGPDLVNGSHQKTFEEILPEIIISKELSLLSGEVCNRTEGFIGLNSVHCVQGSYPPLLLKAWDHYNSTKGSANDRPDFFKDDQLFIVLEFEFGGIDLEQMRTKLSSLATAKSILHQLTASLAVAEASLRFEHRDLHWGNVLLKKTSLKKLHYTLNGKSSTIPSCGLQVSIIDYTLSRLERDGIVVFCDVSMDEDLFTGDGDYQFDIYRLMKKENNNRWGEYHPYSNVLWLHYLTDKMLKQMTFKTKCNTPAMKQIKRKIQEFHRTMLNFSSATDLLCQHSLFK
The experiment in a line: Binding affinity to human wild type partial length Haspin (I452 to K798 residues) expressed in mammalian expression system at 1 uM by kinome scan assay relative to control.

Experiment [6] concerns the target Homeodomain-interacting protein kinase 3 (Homo sapiens) (UniProt Q9H422). The experiment in a line: Binding affinity to human wild type full length HIPK3 (M1 to L344 residues) expressed in mammalian expression system at 1 uM by kinome scan assay relative to control.
Experiment [7] concerns the target Dual specificity protein kinase CLK1 (Homo sapiens) (UniProt P49759). In words: Binding affinity to human wild type full length CLK1 (M1 to I484 residues) expressed in Bacterial expression system at 1 uM by kinome scan assay relative to control.
Experiment [8] concerns the target Casein kinase I isoform epsilon (Homo sapiens) (UniProt P49674). In words: Binding affinity to human wild type full length CSNK1E (M1 to K416 residues) expressed in Bacterial expression system at 1 uM by kinome scan assay relative to control.
The target in experiment [9] is Protein cereblon/DNA damage-binding protein 1 (Homo sapiens, UniProt Q96SW2). In words: Displacement of Cy5-tagged thalidomide-like probe from recombinant CRBN/DDB1 (unknown origin) by competitive binding assay. Type of experiment: protein assay.

Usually Kd stands for the concentration at which binding is half-saturated. As for `Cc1nc2ccc(-c3ccnc(N)c3)nc2n1-c1ccc(N2CCN(C)CC2)cc1F`, the Activity was found to be 0% in experiment [1]; 0.3% in experiment [2]; 0.7% in [4]; 0.2% in [5]; 0.7% in experiment [6]; 0.5% in experiment [7]. Moreover, the Activity in experiment [8] was determined as 0.3%. Further, the Kd in [3] was 0.00091 µM.

As a reminder, the IC50 is the concentration that gives 50% inhibition. For the compound `O=C1CCC(N2C(=O)c3cccc(NCc4cnn(C5CCN(C(=O)C6CCN(c7ccccn7)CC6)CC5)c4)c3C2=O)C(=O)N1` (centres undefined), the IC50 in [9] was 13.3 µM.

Source of the values: ChEMBL document CHEMBL6120970, “Discovery and Functional Characterization of a Potent, Selective, and Metabolically Stable PROTAC of the Protein Kinases DYRK1A and DYRK1B” (J Med Chem, 2024).
